Here are results for 40 compounds from patent US8143259B2, “Cold menthol receptor antagonists” (Janssen Pharmaceutica, NV, priority 2008, dated 2012).

Several values for one entry are separate records, joined by “and”; a condition that tells them apart may be missing. Identical values can stand only once.

The test addresses T1, canine TRPM8 (Canis lupus familiaris, UniProt Q1A7N1).
T1 construct: expressed in transfected cells
Description: In Vitro Canine TRPM8 Functional Assay (Ca2+ fluorescence, icilin activation). The class given is cell-based. As to conditions: for IC50: HEK293 cells stably expressing canine TRPM8, icilin activation, Ca2+ fluorescence; for % Inh @ 0.5 μM: 0.5 μM compound; for inhibition at 0.2 µM: HEK293, 0.2 μM compound; for % Inh @ 0.2 μM: 0.2 μM compound; for inhibition at 0.5 µM: HEK293, 0.5 μM compound; for inhibition at 1 µM: HEK293, 1 μM compound. Summed up: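 HEK293 cells stably expressing canine TRPM8, loaded with Calcium 3 dye; compounds added 5 min before icilin at a concentration giving ~80% maximal response. Peak icilin-evoked Ca2+ fluorescence, basal-subtracted and normalised to maximal response, fitted by sigmoidal nonlinear regression; quadruplicate wells.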

Setting [1] is: canine TRPM8 HEK293, icilin, 0.5 µM.
Where [2] appears, read: canine TRPM8 HEK293, icilin, 0.2 µM.

T1 sequence (Q1A7N1 1-1104): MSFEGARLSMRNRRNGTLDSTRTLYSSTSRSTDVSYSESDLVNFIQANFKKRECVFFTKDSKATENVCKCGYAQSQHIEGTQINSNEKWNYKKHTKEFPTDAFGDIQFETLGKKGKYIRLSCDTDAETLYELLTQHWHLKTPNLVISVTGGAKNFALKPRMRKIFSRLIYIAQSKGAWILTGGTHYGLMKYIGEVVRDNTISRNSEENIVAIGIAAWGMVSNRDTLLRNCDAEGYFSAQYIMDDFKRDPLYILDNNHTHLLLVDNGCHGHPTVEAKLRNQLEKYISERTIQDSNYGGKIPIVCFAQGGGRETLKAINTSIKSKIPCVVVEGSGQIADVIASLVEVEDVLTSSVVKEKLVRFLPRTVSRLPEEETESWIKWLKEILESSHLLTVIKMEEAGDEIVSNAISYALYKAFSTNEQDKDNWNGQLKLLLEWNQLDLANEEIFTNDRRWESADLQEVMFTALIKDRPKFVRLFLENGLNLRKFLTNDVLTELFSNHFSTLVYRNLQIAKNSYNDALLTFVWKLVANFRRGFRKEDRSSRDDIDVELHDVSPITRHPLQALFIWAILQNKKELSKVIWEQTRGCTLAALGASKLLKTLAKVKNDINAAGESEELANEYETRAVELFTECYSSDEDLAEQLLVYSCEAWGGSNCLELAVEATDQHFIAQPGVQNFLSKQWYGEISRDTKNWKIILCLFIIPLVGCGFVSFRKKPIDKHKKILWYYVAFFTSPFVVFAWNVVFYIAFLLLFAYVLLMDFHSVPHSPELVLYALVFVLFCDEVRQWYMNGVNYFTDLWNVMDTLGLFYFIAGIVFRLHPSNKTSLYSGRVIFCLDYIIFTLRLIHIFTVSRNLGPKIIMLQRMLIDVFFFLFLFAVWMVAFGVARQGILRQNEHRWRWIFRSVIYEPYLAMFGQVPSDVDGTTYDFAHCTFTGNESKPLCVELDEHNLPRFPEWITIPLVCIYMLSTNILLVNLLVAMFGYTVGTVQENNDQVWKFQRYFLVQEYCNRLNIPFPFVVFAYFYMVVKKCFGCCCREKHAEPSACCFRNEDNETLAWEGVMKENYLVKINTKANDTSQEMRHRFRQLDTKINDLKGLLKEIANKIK

One may read the IC50 as the concentration that inhibits the measured activity by half. A low value points to greater potency. Turning to `O=C(C(c1ccc(C(F)(F)F)cc1)N1CCc2ccccc21)N1CCCC1c1ccccc1` (stereo not shown) [Cpd 227], the IC50 turned out to be 30.6 nM.
In turn, `O=C(C(Nc1ccccc1F)c1ccc(Br)cc1)N1[C@H](CO)CC[C@@H]1c1ccccc1` (mixture of isomers) [Cpd 238] had an IC50 of 112 nM.
Compound “1-[2-(2-Chloro-phenyl)-pyrrolidin-1-yl]-3-phenylamino-2-(4-trifluoromethyl-phenyl)-propan-1-one [Cpd 83]” showed an IC50 of 248 nM. The “% Inh @ 0.5 μM” value (canine TRPM8 HEK293, icilin) is given as 96%.
As to `O=C(C(Nc1ccccc1)c1ccc(C(F)(F)F)cc1)N1CCCC1c1ccccc1Cl` (single isomer, unassigned) [Cpd 61], the 50% inhibitory concentration (IC50) was 168 nM. Further, the “% Inh @ 0.5 μM” value under setting [1] turned out to be 103.2%.
Usually inhibition stands for the change of the read-out against control, counted positive when it falls. For `CN(C)c1ccc(C2CCCN2C(=O)C(Nc2ccccc2F)c2ccc(C(F)(F)F)cc2)cc1` (stereo not shown) [Cpd 178], the IC50 came out at 10 nM. For the setting “canine TRPM8 HEK293, icilin”, the inhibition at 0.2 µM is 100%.
As for `COC(=O)C1CCC(c2ccccc2)N1C(=O)C(Nc1ccccc1)c1ccc(Cl)cc1` (stereo not shown) [Cpd 213], the “% Inh @ 0.2 μM” value under setting [2] was found to be 63%.
For `O=C(C(Nc1ccccc1F)c1ccc(N2CCOCC2)nc1)N1CCCC1c1ccccc1F` (stereo not shown) [Cpd 359], the IC50 is 7 nM. Further, the inhibition at 0.2 µM (canine TRPM8 HEK293, icilin) stood at 100%.
Consider `O=C(C(Nc1ccc(F)cc1)c1ccc(C(F)(F)F)cc1)N1Cc2ccccc2C1` (stereo not shown) [Cpd 77], for which the IC50 is 84 nM. In addition, the inhibition at 0.5 µM (canine TRPM8 HEK293, icilin) turned out to be 98%.
The matching figures for `COc1ccc(NC(C(=O)N2CCCC2c2ccccc2F)c2ccc(Cl)cc2)cc1` (stereo not shown) [Cpd 137]: 101 nM and 81%.
`O=C(C(Nc1cccc(F)c1)c1ccc(C(F)(F)F)cc1)N1CCCC1c1ccccc1Cl` (stereo not shown) [Cpd 78] showed an IC50 of 138 nM. The inhibition at 0.5 µM (canine TRPM8 HEK293, icilin) turned out to be 94%.
Compound `COC(=O)C1CCC(c2ccccc2)N1C(=O)C(Nc1ccccc1)c1ccc(Cl)cc1` (single isomer, unassigned) [Cpd 212] gave an IC50 of 17 nM. The “% Inh @ 0.2 μM” value under setting [2] was 99%.
Take `O=C(C(Nc1ccccc1F)c1ccc(C(F)(F)F)cc1)N1CCCC1c1ccccc1Cl` (racemic) [Cpd 68]: the IC50 was 7 nM and 12 nM and 13 nM. In addition, for the setting “canine TRPM8 HEK293, icilin”, the inhibition at 0.2 µM came to 89% and the inhibition at 0.5 µM stood at 103%.
As for `COc1ccccc1C1CCCN1C(=O)C(Nc1ccccc1F)c1ccc(Br)cc1` (racemic) [Cpd 90], the IC50 worked out at 7 nM. For the setting “canine TRPM8 HEK293, icilin”, the inhibition at 0.5 µM came out at 97%.
`O=C(C(Nc1ccccc1)c1cnc2ccccc2c1)N1CCCC1c1ccccc1F` (stereo not shown) [Cpd 264] showed an IC50 of 43 nM. The inhibition at 0.2 µM (canine TRPM8 HEK293, icilin) was 93%.
With `CC(C)(C)c1ccc(C(Nc2ccccc2)C(=O)N2CCc3ccccc32)cc1` (stereo not shown) [Cpd 15], the IC50 worked out at 257 nM. The inhibition at 1 µM (canine TRPM8 HEK293, icilin) amounted to 94.8%.
In turn, `O=C(C(Nc1ccccc1)c1ccc(C(F)(F)F)cc1)N1CCCC1c1cccs1` (stereo not shown) [Cpd 24] had an IC50 of 14.9 nM. Further, where the note is “canine TRPM8 HEK293, icilin”, the inhibition at 0.5 µM was found to be 102%.
`O=C(C(c1ccc(C(F)(F)F)cc1)N1CCc2ccccc21)N1CCC[C@H]1c1cccnc1` (mixture of isomers) [Cpd 275]: inhibition was half-maximal at 21 nM (IC50). Moreover, the inhibition at 0.2 µM (canine TRPM8 HEK293, icilin) was 94%.
On to `O=C(C(Nc1ccccc1)c1ccccc1Cl)N1CCCC1c1ccccc1Cl` (mixture of isomers) [Cpd 362], for which, under “canine TRPM8 HEK293, icilin”, the “% Inh @ 0.5 μM” value stood at 21.91%.
As to `CC(C)(C)c1ccc(C(Nc2ccccc2)C(=O)N2CCCC2Cc2ccccc2Cl)cc1` (mixture of isomers) [Cpd 6], the “% Inh @ 1 μM” value (1 μM compound, canine TRPM8 HEK293, icilin) stood at 45.171%.
Take `O=C(C(CNc1ccccc1)c1ccc(C(F)(F)F)cc1)N1CCCC1c1ccccc1` (mixture of isomers) [Cpd 95]: under setting [1], the “% Inh @ 0.5 μM” value came to 67%.
`O=C(C(Nc1ccccc1F)c1ccc(Cl)cc1)N1CCCC1c1ccccc1F` (stereo not shown) [Cpd 115] yielded a 50% inhibitory concentration (IC50) of 10.1 nM. Also, the inhibition at 0.5 µM (canine TRPM8 HEK293, icilin) amounted to 97%.
As to `O=C(C(Nc1c(F)cccc1F)c1ccc(Cl)cc1)N1CCCC1c1ccccc1` (stereo not shown) [Cpd 146], inhibition was half-maximal at 12 nM (IC50). The inhibition at 0.5 µM (canine TRPM8 HEK293, icilin) turned out to be 99%.
As to `O=C(C(Nc1ccccc1F)c1cnc2ccccc2c1)N1CCCC1c1cccnc1` (single isomer, unassigned) [Cpd 298], the “% Inh @ 0.2 μM” value (canine TRPM8 HEK293, icilin) is 22%.
As to `COC(=O)[C@@H]1CC[C@H](c2ccccc2)N1C(=O)C(Nc1c(F)cccc1F)c1ccc(Br)cc1` (single isomer, unassigned) [Cpd 205], the “% Inh @ 0.2 μM” value under setting [2] is recorded as 62%.
Turning to `O=C(C(Nc1ccccc1)c1ccc(C(F)(F)F)cc1)N1CCCC1c1cc2ccccc2[nH]1` (stereo not shown) [Cpd 26], the “% Inh @ 0.5 μM” value under setting [1] was 56.872%.
In the case of `O=C(C(Nc1ccccc1)c1ccc(C(F)(F)F)cc1)N1CCCC1c1ccccc1Cl` (racemic) [Cpd 16], 21.6 nM corresponded to half-maximal inhibition (IC50). The inhibition at 1 µM (canine TRPM8 HEK293, icilin) worked out at 103%.
Turning to `O=C(C(c1ccc(C(F)(F)F)cc1)N1CCCc2ccccc21)N1CCCC1c1ccccc1` (stereo not shown) [Cpd 291], half-maximal inhibition (IC50) required 422 nM. Further, the inhibition at 0.2 µM (canine TRPM8 HEK293, icilin) amounted to 72%.
In the case of `O=C(C(Nc1ccccc1F)c1ccc(Br)cc1)N1CCCC1c1ccccc1Cl` (stereo not shown) [Cpd 89], the IC50 is 20 nM. Besides, for the setting “canine TRPM8 HEK293, icilin”, the inhibition at 0.5 µM amounted to 98%.
Turning to `O=C(C(Nc1ccccc1F)c1ccc(Cl)cc1)N1Cc2ccccc2C1` (stereo not shown) [Cpd 113], the IC50 worked out at 61.7 nM. Moreover, the inhibition at 0.5 µM (canine TRPM8 HEK293, icilin) was determined as 98%.
`O=C(C(c1ccc(C(F)(F)F)cc1)N1CCc2ccccc21)N1CCCC1c1ccccc1F` (stereo not shown) [Cpd 228] gave an IC50 of 25.4 nM.
Take `O=C(C(Nc1ccccc1)c1ccc(Br)cc1)N1CCCC1c1ccccc1Cl` (stereo not shown) [Cpd 67]: the IC50 amounted to 42 nM. Moreover, the inhibition at 0.5 µM (canine TRPM8 HEK293, icilin) was 102%.
Regarding `O=C(C(Nc1c(F)cccc1F)c1ccc(Cl)cc1)N1CCCC1c1cccnc1` (mixture of isomers) [Cpd 270], the “% Inh @ 0.2 μM” value (canine TRPM8 HEK293, icilin) amounted to 58%.
`O=C(C(Nc1ccccc1)c1ccc(C(F)(F)F)cc1)N1CCCC1c1ccccc1Cl` (single isomer, unassigned) [Cpd 60] gave an IC50 of 41.4 nM. Besides, the “% Inh @ 0.5 μM” value under setting [1] amounted to 103.24%.
`O=C(O)c1cccc(C2CCCN2C(=O)C(Nc2ccccc2F)c2cc3ccccc3s2)c1` (stereo not shown) [Cpd 326, 3-{1-[2-Benzo[b]thiophen-2-yl-2-(2-fluoro-phenylamino)-acetyl]-pyrrolidin-2-yl}-benzoic acid]: the midpoint of inhibition, the IC50, lay at 78 nM. Moreover, the inhibition at 0.2 µM (canine TRPM8 HEK293, icilin) was found to be 97%.
The matching figures for `CC(=O)Nc1cccc(C2CCCN2C(=O)C(Nc2ccccc2F)c2ccc(C(F)(F)F)cc2)c1` (stereo not shown) [Cpd 316]: 26 nM and 102%.
With `O=C(C(CNc1ccccc1)c1ccc(C(F)(F)F)cc1)N1CCCC1c1ccccc1F` (stereo not shown) [Cpd 103], the IC50 amounted to 182 nM. Besides, the inhibition at 0.5 µM (canine TRPM8 HEK293, icilin) was 75%.
`COC(=O)c1cccc(NC(C(=O)N2CCCC2c2ccccc2F)c2ccc3c(c2)CCO3)c1` (stereo not shown) [Cpd 311] returned an IC50 of 51 nM. For the same compound, the inhibition at 0.2 µM (canine TRPM8 HEK293, icilin) was 99%.
In the same order, the values of `O=C(C(Nc1ccccc1F)c1ccc(Cl)cc1)N1CCCc2ccccc21` (stereo not shown) [Cpd 364] are 36 nM and 91%.
In the same order, the values of `CC(C)(C)c1ccc(C(Nc2ccccc2F)C(=O)N2CCC[C@H]2c2ccccc2F)cn1` (single isomer, unassigned) [Cpd 357] are 3 nM and 100%.
`O=C(C(Nc1ccccc1)c1ccc(C(F)(F)F)cc1)N1CCCC1c1ccccc1Cl` (single isomer, unassigned) [Cpd 22] came in with an IC50 of 378 nM. Further, the “% Inh @ 0.5 μM” value under setting [1] came out at 102.36%.
